Data taken from patent US20110224208A1, “NOVEL INHIBITORS OF FLAVIVIRUS REPLICATION” (KATHOLIEKE UNIVERSITEIT LEUVEN, K.U. LEUVEN R&D, priority 2008, published 2011).
≈ marks a conversion by molar mass, not a printed value.

Assays:
[1] = system: HCV replicon I389luc-ubi-neo/NS3-3'/5.1; assay: Anti-HCV replicon assay (luciferase activity) in Huh-5-2 cells; format: cell-based, Hepatitis C virus; conditions: Hepatitis C virus, Huh-5-2, 72 h, concentration required to inhibit luciferase activity in the replicon system by 50%
In short: (§1)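 Huh-5-2 cells carrying the luciferase HCV replicon, seeded 24 h, then exposed to serial compound dilutions without G418 for 72 h at 37° C, 5% CO2. Replication read as luciferase luminescence, expressed as percentage of untreated cultures; culture density measured in parallel by MTS.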

[2] = Proliferation of exponentially growing Huh-5-2 cells (MTS method); conditions: human, CC50, concentration required to inhibit the proliferation of exponentially growing Huh-5-2 cells by 50%; Table 2
In short: as §1

Structure (SMILES)	IC50 [1] [µg/mL]	CC50 at 72 h [2] [µg/mL]
COCCN1C(=O)c2ccccc2C(C(=O)Nc2ccc3c(c2)CC(=O)N3C)C1c1cccs1 (stereo not drawn) [C206, 2-(2-methoxyethyl)-N-(1-methyl-2-oxoindolin-5-yl)-1-oxo-3-(thiophen-2-yl)-1,2,3,4-tetrahydroisoquinoline-4-carboxamide]	3.72 (≈ 7.82 µM)	52.3 (≈ 110 µM)
COCCN1C(=O)c2ccccc2C(C(=O)n2c(=O)oc3ccc(N)cc32)C1c1cccs1 (stereo not drawn) [C207, 5-amino-3-(−2-(2-methoxyethyl)-1-oxo-3-(thiophen-2-yl)-1,2,3,4-tetrahydroisoquinoline-4-carbonyl)benzo[d]oxazol-2(3H)-one]	27.4 (≈ 59.2 µM)	72.3 (≈ 156 µM)
COCCN1C(=O)c2ccccc2C(C(=O)Nc2cc(-c3ccccc3)nn2C)C1c1cccs1 (stereo not drawn) [C208, 2-(2-methoxyethyl)-N-(1-methyl-3-phenyl-1H-pyrazol-5-yl)-1-oxo-3-(thiophen-2-yl)-1,2,3,4-tetrahydroisoquinoline-4-carboxamide]	0.39 (≈ 0.801 µM)	7.94 (≈ 16.3 µM)
COCCN1C(=O)c2ccccc2C(C(=O)Nc2cc(C(=O)OC)n(C)c2)C1c1cccs1 (stereo not drawn) [C209, methyl 4-(2-(2-methoxyethyl)-1-oxo-3-(thiophen-2-yl)-1,2,3,4-tetrahydroisoquinoline-4-carboxamido)-1-methyl-1H-pyrrole-2-carboxylate]	0.11 (≈ 0.235 µM)	57.8 (≈ 124 µM)
COCCN1C(=O)c2ccccc2C(C(=O)Nc2cccc(Cn3ccnc3)c2)C1c1cccs1 (stereo not drawn) [C212, N-(3-((1H-imidazol-1-yl)methyl)phenyl)-2-(2-methoxyethyl)-1-oxo-3-(thiophen-2-yl)-1,2,3,4-tetrahydroisoquinoline-4-carboxamide]	0.16 (≈ 0.329 µM)	52.6 (≈ 108 µM)
COCCN1C(=O)c2ccccc2C(C(=O)Nc2ccc(C)c(NS(C)(=O)=O)c2)C1c1cccs1 (stereo not drawn) [C213, 2-(2-methoxyethyl)-N-(4-methyl-3-(methylsulfonamido)phenyl)-1-oxo-3-(thiophen-2-yl)-1,2,3,4-tetrahydroisoquinoline-4-carboxamide]	0.036 (≈ 0.0701 µM)	> 100
COCCN1C(=O)c2ccccc2C(C(=O)Nc2ccc(-c3nncn3C)cc2)C1c1cccs1 (stereo not drawn) [C214, 2-(2-methoxyethyl)-N-(4-(4-methyl-4H-1,2,4-triazol-3-yl)phenyl)-1-oxo-3-(thiophen-2-yl)-1,2,3,4-tetrahydroisoquinoline-4-carboxamide]	5.29 (≈ 10.8 µM)	85.3 (≈ 175 µM)
COCCN1C(=O)c2ccccc2C(C(=O)Nc2ccc(Cn3ccnc3)cc2)C1c1cccs1 (stereo not drawn) [C215, N-(4-((1H-imidazol-1-yl)methyl)phenyl)-2-(2-methoxyethyl)-1-oxo-3-(thiophen-2-yl)-1,2,3,4-tetrahydroisoquinoline-4-carboxamide]	1.04 (≈ 2.14 µM)	52.9 (≈ 109 µM)
COCCN1C(=O)c2ccccc2C(C(=O)Nc2ccc(CN3CCCCC3)cc2)C1c1cccs1 (stereo not drawn) [C216, 2-(2-methoxyethyl)-1-oxo-N-(4-(piperidin-1-ylmethyl)phenyl)-3-(thiophen-2-yl)-1,2,3,4-tetrahydroisoquinoline-4-carboxamide]	2.57 (≈ 5.1 µM)	10.9 (≈ 21.7 µM)
COCCN1C(=O)c2ccccc2C(C(=O)Nc2ccc(Cn3cncn3)cc2)C1c1cccs1 (stereo not drawn) [C217, N-(4-((1H-1,2,4-triazol-1-yl)methyl)phenyl)-2-(2-methoxyethyl)-1-oxo-3-(thiophen-2-yl)-1,2,3,4-tetrahydroisoquinoline-4-carboxamide]	0.76 (≈ 1.56 µM)	83.7 (≈ 172 µM)
COCCN1C(=O)c2ccccc2C(C(=O)Nc2ccc(OC3CCOCC3)cc2)C1c1cccs1 (stereo not drawn) [C218, 2-(2-methoxyethyl)-1-oxo-N-(4-(tetrahydro-2H-pyran-4-yloxy)phenyl)-3-(thiophen-2-yl)-1,2,3,4-tetrahydroisoquinoline-4-carboxamide]	0.1 (≈ 0.197 µM)	83.8 (≈ 165 µM)
COCCN1C(=O)c2ccccc2C(C(=O)Nc2ccc3ncoc3c2)C1c1cccs1 (stereo not drawn) [C219, N-(benzo[d]oxazol-6-yl)-2-(2-methoxyethyl)-1-oxo-3-(thiophen-2-yl)-1,2,3,4-tetrahydroisoquinoline-4-carboxamide]	1.14 (≈ 2.55 µM)	91.1 (≈ 204 µM)
